Laboratory results as given in ChEMBL document CHEMBL1201862, “PubChem BioAssay data set” (2004).
The source made the active and inactive calls.

Legend:
Protein skinhead-1 = biological target: T1, Protein skinhead-1 (Caenorhabditis elegans, UniProt P34707); format: functional
T1 sequence (P34707 whole entry): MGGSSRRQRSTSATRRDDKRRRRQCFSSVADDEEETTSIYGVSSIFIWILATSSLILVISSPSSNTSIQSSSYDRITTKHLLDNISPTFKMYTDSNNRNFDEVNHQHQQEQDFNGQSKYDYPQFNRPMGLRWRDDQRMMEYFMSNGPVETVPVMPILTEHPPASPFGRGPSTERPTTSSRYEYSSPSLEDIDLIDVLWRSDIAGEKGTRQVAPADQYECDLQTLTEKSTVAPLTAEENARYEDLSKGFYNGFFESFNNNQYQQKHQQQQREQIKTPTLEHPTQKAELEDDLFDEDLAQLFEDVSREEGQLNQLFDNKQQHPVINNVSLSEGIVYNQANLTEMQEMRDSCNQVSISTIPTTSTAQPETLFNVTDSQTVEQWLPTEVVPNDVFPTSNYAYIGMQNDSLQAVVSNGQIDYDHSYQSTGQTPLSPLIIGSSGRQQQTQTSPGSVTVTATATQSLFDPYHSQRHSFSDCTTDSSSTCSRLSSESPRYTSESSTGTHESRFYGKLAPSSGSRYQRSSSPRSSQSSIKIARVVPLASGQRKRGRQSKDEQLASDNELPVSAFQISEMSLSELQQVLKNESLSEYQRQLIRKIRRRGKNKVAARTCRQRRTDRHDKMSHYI

Cytochrome P450 1A2 = biological target: T2, Cytochrome P450 1A2 (Homo sapiens, UniProt P05177);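 note: PubChem cytochrome P450 panel assay, CYP1A2 panel member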
T2 sequence (P05177 whole entry): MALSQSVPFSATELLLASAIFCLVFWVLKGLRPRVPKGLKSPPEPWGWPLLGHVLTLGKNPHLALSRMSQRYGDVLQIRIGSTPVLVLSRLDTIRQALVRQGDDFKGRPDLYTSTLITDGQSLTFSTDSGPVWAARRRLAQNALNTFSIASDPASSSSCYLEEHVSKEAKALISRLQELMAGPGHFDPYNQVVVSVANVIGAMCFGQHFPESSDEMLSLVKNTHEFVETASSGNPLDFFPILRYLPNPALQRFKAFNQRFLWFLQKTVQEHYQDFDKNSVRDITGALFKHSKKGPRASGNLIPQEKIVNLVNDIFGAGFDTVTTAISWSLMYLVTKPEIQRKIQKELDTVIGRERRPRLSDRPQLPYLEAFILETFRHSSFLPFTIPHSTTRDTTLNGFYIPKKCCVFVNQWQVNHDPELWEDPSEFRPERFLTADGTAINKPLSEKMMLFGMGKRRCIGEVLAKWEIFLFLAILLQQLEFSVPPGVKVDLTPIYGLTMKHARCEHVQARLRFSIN

Cytochrome P450 2C9 = Cytochrome P450 2C9 (Homo sapiens, UniProt P11712)
Sequence of Cytochrome P450 2C9 (P11712 whole entry): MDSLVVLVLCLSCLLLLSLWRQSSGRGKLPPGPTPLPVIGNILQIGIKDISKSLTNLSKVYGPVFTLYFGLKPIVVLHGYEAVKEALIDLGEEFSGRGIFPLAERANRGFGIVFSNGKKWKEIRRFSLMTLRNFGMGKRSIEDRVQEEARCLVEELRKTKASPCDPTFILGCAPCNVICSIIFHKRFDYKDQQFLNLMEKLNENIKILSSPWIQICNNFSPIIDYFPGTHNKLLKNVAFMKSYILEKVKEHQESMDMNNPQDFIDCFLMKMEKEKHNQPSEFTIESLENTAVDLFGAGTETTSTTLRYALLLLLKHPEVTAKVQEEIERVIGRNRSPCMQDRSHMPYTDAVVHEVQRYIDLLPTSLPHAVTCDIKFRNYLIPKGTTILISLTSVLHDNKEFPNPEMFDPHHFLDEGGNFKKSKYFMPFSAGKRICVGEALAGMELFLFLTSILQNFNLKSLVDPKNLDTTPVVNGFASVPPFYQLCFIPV

Cytochrome P450 2C19 = Cytochrome P450 2C19 (Homo sapiens, UniProt P33261); test: Cytochrome panel assay with activity outcomes. Panel member name: p450-cyp2c19 Compounds with AC50 equal or less than 10 uM are considered active; format: functional; details: read-out: AC50
Sequence of Cytochrome P450 2C19 (P33261 whole entry): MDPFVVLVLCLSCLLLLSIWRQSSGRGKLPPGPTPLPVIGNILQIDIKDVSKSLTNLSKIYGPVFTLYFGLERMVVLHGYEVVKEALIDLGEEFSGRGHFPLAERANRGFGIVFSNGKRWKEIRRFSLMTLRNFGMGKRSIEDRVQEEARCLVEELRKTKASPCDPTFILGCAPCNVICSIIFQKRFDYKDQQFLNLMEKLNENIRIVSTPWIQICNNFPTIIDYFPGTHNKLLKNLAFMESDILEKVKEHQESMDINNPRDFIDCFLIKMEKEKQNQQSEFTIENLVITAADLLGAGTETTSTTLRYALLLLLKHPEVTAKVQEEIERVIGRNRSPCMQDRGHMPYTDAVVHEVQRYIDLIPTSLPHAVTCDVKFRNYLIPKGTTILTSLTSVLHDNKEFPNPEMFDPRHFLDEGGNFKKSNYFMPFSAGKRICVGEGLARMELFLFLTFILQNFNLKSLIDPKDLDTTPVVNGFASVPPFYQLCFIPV

Cytochrome P450 2D6 = Cytochrome P450 2D6 (Homo sapiens, UniProt P10635);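 note: CYP2D6 member of a cytochrome P450 panel assay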
Sequence of Cytochrome P450 2D6 (P10635 whole entry): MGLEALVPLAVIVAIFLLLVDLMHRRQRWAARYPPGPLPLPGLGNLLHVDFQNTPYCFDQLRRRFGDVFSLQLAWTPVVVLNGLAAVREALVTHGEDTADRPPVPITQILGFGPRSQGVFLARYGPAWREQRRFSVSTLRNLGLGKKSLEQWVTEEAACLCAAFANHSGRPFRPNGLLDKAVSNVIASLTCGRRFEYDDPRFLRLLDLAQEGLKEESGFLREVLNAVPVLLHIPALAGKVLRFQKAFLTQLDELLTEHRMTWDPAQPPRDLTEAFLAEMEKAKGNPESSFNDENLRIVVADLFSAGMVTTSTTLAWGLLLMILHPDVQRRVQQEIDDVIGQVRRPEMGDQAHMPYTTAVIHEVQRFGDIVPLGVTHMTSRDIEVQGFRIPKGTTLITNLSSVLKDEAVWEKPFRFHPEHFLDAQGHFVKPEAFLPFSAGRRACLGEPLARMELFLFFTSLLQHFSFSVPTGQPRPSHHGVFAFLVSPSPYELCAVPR

[1] = biological target: T3, Zinc finger protein mex-5 (Caenorhabditis elegans, UniProt Q9XUB2); test: potency of MEX-5 RNA-binding blockers – biochemical, C. elegans, fluorescence polarization, dose response (AID 1960)
T3 sequence (Q9XUB2 whole entry): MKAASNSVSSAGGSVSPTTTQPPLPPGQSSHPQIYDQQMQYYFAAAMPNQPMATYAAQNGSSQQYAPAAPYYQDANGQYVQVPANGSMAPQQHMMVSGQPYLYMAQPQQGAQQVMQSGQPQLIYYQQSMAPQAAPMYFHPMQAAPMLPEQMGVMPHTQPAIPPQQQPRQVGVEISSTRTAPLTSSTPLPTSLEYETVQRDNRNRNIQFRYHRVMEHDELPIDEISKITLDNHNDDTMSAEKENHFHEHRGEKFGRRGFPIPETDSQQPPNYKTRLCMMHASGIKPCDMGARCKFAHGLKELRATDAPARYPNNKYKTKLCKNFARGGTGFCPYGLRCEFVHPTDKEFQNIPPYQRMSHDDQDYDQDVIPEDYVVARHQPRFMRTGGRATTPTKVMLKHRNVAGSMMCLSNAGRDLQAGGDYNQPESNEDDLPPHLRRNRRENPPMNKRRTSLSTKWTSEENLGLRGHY

[2] = biological target: T4, RNA-binding protein pos-1 (Caenorhabditis elegans, UniProt G5EF15); test: disruptors of C. elegans POS-1 RNA interaction – biochemical, fluorescence polarization, dose response (AID 1964);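 note: purified POS-1 fused to maltose binding protein made in E. coli; potency of compounds blocking POS-1 binding to fluorescent RNA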
T4 sequence (G5EF15 whole entry): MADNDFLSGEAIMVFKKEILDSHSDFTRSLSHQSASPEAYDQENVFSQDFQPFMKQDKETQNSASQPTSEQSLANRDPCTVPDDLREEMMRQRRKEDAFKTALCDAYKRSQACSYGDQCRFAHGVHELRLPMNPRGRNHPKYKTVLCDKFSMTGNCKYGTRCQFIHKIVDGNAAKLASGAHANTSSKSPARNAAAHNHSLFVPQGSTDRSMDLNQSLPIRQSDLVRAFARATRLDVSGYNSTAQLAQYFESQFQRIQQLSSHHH

[3] = biological target: FAD-linked sulfhydryl oxidase ALR (Homo sapiens, UniProt P55789); test: ALR-catalysed DTT oxidation blockers – biochemical, H2O2 detection, luminescence, cherry-pick, dose response (AID 493248)
Sequence of FAD-linked sulfhydryl oxidase ALR (P55789 whole entry): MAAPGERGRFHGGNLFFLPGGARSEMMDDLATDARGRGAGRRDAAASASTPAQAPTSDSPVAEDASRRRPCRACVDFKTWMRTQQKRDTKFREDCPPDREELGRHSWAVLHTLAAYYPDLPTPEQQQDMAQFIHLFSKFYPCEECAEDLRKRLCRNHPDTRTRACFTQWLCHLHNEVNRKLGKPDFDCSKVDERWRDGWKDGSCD

[4] = NIH3T3 cell viability loss – ATP luminescence, mouse fibroblasts, counter-screen, dose response (AID 2010); format: functional, cell-based;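 note: cells exposed to compound for about 90 hours before reading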
[5] = tested on: Streptococcus sp. 'group A'; test: Streptococcus pyogenes SK(-)GAS viability under kanamycin – luminescence, BacTiterGlo, confirmation, counter-screen for streptokinase expression inhibitor project, dose response (AID 1900); format: functional, organism-based
Streptococcus = test: GAS UMAA2166 growth inhibition – luminescence, BacTiterGlo, counter-screen for streptokinase expression inhibitor project, dose response (AID 1915); format: functional, organism-based;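 note: potency for reduction of bacterial viability or growth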
Streptokinase A = biological target: T5, Streptokinase A (Streptococcus pyogenes serotype M1, UniProt P10520); test: viability-normalized secreted streptokinase activity reduction – plasminogen activation absorbance, OD405, dose response (AID 1914); format: functional, Streptococcus pyogenes M1 GAS;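 note: secreted streptokinase activity via plasminogen activation per viability signal from cell pellet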
T5 sequence (P10520 whole entry): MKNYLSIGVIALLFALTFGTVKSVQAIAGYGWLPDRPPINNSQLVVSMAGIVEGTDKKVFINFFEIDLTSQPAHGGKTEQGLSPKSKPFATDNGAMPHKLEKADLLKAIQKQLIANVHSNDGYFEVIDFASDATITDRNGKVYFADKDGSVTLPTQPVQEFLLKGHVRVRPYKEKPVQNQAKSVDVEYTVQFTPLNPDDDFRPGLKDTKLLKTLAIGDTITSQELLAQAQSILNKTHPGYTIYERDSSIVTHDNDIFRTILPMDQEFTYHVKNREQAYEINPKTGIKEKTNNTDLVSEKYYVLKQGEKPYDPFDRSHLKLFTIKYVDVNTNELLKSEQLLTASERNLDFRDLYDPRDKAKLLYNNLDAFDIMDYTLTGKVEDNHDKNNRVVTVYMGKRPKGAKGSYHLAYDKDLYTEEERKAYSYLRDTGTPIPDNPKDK

[6] = Trypanosoma cruzi growth suppression in host cells – NIH3T3 host cells, beta-gal luminescence, confirmation (AID 2044); format: functional, cell-based;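 note: intracellular parasites grown in NIH/3T3 mouse fibroblasts as host cells; luminescent beta-galactosidase reporter signal from transgenic T. cruzi replicating inside host cells; inhibitors lower the luminescence signal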
[7] = biological target: T6, Rac GTPase-activating protein 1 (Homo sapiens, UniProt Q9H0H5); test: blockers of MgcRacGAP-driven Rac1 GTP hydrolysis – biochemical, ADP Hunter fluorescence, primary and confirmatory, confirmation (AID 624330); format: functional
T6 sequence (Q9H0H5 whole entry): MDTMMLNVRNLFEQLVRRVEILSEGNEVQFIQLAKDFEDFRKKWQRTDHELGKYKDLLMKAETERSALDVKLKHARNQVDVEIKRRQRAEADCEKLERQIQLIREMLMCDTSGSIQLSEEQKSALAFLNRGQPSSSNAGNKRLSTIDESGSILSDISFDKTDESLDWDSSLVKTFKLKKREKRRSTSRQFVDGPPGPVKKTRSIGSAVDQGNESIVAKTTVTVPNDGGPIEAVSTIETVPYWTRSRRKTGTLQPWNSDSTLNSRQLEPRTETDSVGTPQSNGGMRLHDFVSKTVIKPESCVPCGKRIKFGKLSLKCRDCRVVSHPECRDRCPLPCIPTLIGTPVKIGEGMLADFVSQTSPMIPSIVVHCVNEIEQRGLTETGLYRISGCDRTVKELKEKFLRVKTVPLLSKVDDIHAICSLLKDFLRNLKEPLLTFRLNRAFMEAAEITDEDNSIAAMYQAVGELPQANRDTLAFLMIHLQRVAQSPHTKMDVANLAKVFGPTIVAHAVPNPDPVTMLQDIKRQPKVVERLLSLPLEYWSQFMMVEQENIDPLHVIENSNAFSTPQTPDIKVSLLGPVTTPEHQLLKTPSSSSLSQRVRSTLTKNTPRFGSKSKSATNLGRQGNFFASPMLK

H4 = test: Luminescence Cell-Based Dose Response HTS to Identify Activators of 5'UTR Stem-Loop Driven Prion Protein mRNA Translation in H4 Neuroglioblastoma Cells. [Related pubchem assays: 1829 (Project Summary), 1814 (Primary HTS)]; format: functional; details: Homo sapiens
[8] = Luminescence Cell-Based Dose Response HTS to Identify Activators of Luciferase Translation or Activity in H4 […] Cells. [Related pubchem assays: 1829 (Project Summary), 1814 (Primary HTS)]; format: functional

CCCC(C)C(=O)NCc1ccccc1OC (stereo unspecified)
IC50 (Protein skinhead-1): > 100 µM (inactive)

Cc1cccc(NC(=O)c2cccc(N3C(=O)C4C5CCC(C5)C4C3=O)c2)c1C (stereo unspecified)
AC50 (Cytochrome P450 1A2): 25.1 µM (inconclusive) | AC50 (Cytochrome P450 2C9): 22.4 µM (inconclusive)

COc1cccc(-c2cccc(NC(=O)C3CCN(CC4CCOC4)CC3)c2)c1 (stereo unspecified)
IC50 (Protein skinhead-1): > 100 µM (inactive)

O=C(CN1CCN(S(=O)(=O)c2ccc(F)cc2)CC1)Nc1ccc2c(c1)OCO2
AC50 (Cytochrome P450 1A2): 25.1 µM (inconclusive) | AC50 (Cytochrome P450 2C19): 3.98 µM (inconclusive) | AC50 (Cytochrome P450 2D6): 5.01 µM (inconclusive) | AC50 (Cytochrome P450 2C9): 11.2 µM (inconclusive)

CCOc1cc2c(cc1/C=C(/C#N)c1ccc(C(=O)O)cc1)OCO2
EC50 [1]: > 300 µM (not active) | EC50 [2]: > 300 µM (not active)

COC(=O)[C@H](Cc1ccccc1)NC(=O)N1CCN(c2ccccc2)CC1
AC50 [3]: 6.26 µM (active)

O=C(Nc1nccs1)c1ccc(-c2ccc([N+](=O)[O-])cc2)o1
EC50 [1]: 6.66 µM (active) | EC50 [2]: 12.3 µM (inconclusive)

COc1ccc(-c2nnn(CC(=O)N(CC(=O)NCCC(C)C)Cc3cccs3)n2)cc1OC
AC50 (Cytochrome P450 1A2): 31.6 µM (inconclusive) | AC50 (Cytochrome P450 2C9): 7.08 µM (inconclusive)

COc1ccc(C2(CNC(=O)/C=C/c3ccco3)CCCC2)cc1OC
AC50 (Cytochrome P450 1A2): 22.4 µM (inconclusive) | AC50 (Cytochrome P450 2C9): 10 µM (inconclusive)

COc1cccc(N/N=C/c2cccc(Br)c2O)c1
AC50 [3]: 1.67 µM (active) | EC50 [4]: > 60 µM (not active) | EC50 [5]: 12.5 µM (active) | EC50 (Streptococcus): > 150 µM (not active) | EC50 (Streptokinase A): 19.6 µM (active) | EC50 [6]: 3.27 µM (active)

CCC(C)Nc1nc2c(c(=O)n(C)c(=O)n2C)n1Cc1cccc(C)c1 (stereo unspecified)
AC50 [3]: 8.61 µM (active)

O=C(c1ccco1)N1CCC2(CCCN(C(c3ccccc3)c3ccccc3)C2)CC1
AC50 (Cytochrome P450 1A2): 15.8 µM (inconclusive) | AC50 (Cytochrome P450 2C19): 39.8 µM (inconclusive)

CC(NC(=O)c1ccc(N2CCCC2)c([N+](=O)[O-])c1)c1ccc(S(N)(=O)=O)cc1 (stereo unspecified)
AC50 [3]: 3.51 µM (active)

Nc1ccc2c(Cl)cc(Cl)cc2c1
IC50 (Protein skinhead-1): 22.7 µM (active)

Cc1cc(O)c(C(C)C)cc1NC(=O)Nc1ccc([N+](=O)[O-])cc1
IC50 (Protein skinhead-1): 68.4 µM (inactive)

CCOC(=O)CSc1nc2ccccc2c(=O)n1CCN1CCOCC1
IC50 (Protein skinhead-1): > 100 µM (inactive)

COc1cc(C)cc2c(-c3c(O)cc(O)c4c3C[C@H](C)N[C@@H]4C)cc(-c3cc(-c4c(O)cc(O)c5c4C[C@H](C)N[C@@H]5C)c4cc(C)cc(OC)c4c3O)c(O)c12
AC50 (Cytochrome P450 1A2): 0.2 µM (inconclusive) | AC50 (Cytochrome P450 2D6): 5.01 µM (inconclusive)

CCOC(=O)c1c(NC(=O)CCC(=O)N2CCOCC2)sc2c1CC(C)(C)OC2
AC50 (Cytochrome P450 1A2): 15.8 µM (inconclusive) | AC50 (Cytochrome P450 2C19): 0.224 µM (inconclusive) | AC50 (Cytochrome P450 2C9): 0.00562 µM (inconclusive)

CCc1ccc(CNc2ccc(N3CCN(C(C)=O)CC3)cc2)cc1
AC50 [3]: 0.445 µM (active) | IC50 [7]: 9.44 µM (active)

O=C(N/N=C/c1ccc2nccnc2c1)c1ccccc1O
EC50 (H4): 44.2 µM (active) | EC50 [8]: 48.8 µM (active)

CCN(CC)c1ccc(NC(=O)CN2CCN(c3ccccn3)CC2)cc1
AC50 [3]: 0.384 µM (active) | IC50 [7]: 131 µM (active)

N#CC1=C(N)n2c(s/c(=C\c3cccs3)c2=O)=C(C#N)C1c1cccs1 (stereo unspecified)
AC50 [3]: 5.68 µM (active)

Cc1ccc(NC(=O)CCOc2ccccc2)cc1
EC50 (H4): > 120 µM (not active) | EC50 [8]: 92.6 µM (active)

Cc1cccc(C(=O)N(Cc2cccs2)C2CCS(=O)(=O)C2)c1 (stereo unspecified)
IC50 (Protein skinhead-1): > 100 µM (inactive)

O=C(c1cc(COc2ccc(F)cc2Cl)on1)N1CCCCCC1
IC50 (Protein skinhead-1): > 100 µM (inactive)

Cn1cnc2cc(NCc3ccc(Cl)cc3)ccc21
AC50 [3]: 5.49 µM (active)

Cc1ccc2c(c1)c(C)c(C)n2CC(O)CN1CCOCC1 (stereo unspecified)
IC50 (Protein skinhead-1): > 100 µM (inactive)

COc1ccc(N2CCN(C(=O)Cc3cccs3)CC2)cc1
AC50 [3]: 2.36 µM (active)

Cc1ccc(-c2nc(N/N=C/c3ccccc3[N+](=O)[O-])c3ccccc3n2)cc1
EC50 (H4): 0.595 µM (active)

COc1cc(/C=N/NC(=O)c2cccc([N+](=O)[O-])c2)cc(OC)c1O
AC50 [3]: 2.04 µM (active)
